Converted amounts (≈) assume the structure as drawn. Read-outs that look alike come from different tables or passages of the source.
Tests used:
[1] = Equilibrium saturated solubility in HFA-152a without cosolvent; assay type: physicochemical; settings: organic solvent or mixture, thermodynamic from solid, no cosolvent
Procedure: In this Example, the equilibrium saturated solubility of Δ-9-THC and CBD individually in HFA-152a. was measured.
[…]. Each solution was covered with aluminum foil to prevent UV light from reaching the drug. A first set of solutions was then shaken at room temperature for 4 days. A second set of solutions was stored at 5° C. and manually shaken several times per day. After 4 days, each solution was filtered to remove undissolved CBD and/or Δ-9-THC, and the concentration of each cannabinoid was measured. Formulations were assessed for solubility at room temperature and at 5° C.

[2] = for solubility at 14 days: organic solvent or mixture; for visual solubility: HFA-152a, after 14 days, ambient conditions or 5° C.
[3] = Equilibrium saturated solubility in HFA-134a (comparative); assay type: physicochemical; settings: room temperature
Procedure: (§1) In this Example, the equilibrium saturated solubility of CBD or Δ-9-THC individually in HFA-227 and HFA-134a was measured.
(§2) […]. Each solution was shaken at room temperature for 4 days, after which each solution was filtered to remove undissolved CBD and/or Δ-9-THC, and the concentration of each cannabinoid was measured. The equilibrium saturated solubility of each cannabinoid in each propellant was measured at room temperature.

[4] = Equilibrium saturated solubility in HFA-227 (comparative); assay type: physicochemical; settings: organic solvent or mixture, thermodynamic from solid, room temperature
Procedure: as §1, §2

Compound | solubility at 4 days ([1]; 5° C.) | solubility at 4 days ([1]; room temperature) | solubility at 14 days ([2]; HFA-152a with 4%, […]) | visual solubility ([2]; 4% ethanol by weight) | visual solubility ([2]; 5% ethanol by weight) | visual solubility ([2]; 6% ethanol by weight) | solubility at 4 days ([3]; organic solvent or mixture, thermodynamic from solid) | solubility at 4 days [4] | solubility at 14 days ([2]; HFA-152a with 1-3% ethanol by weight) | visual solubility ([2]; 1% ethanol by weight) | visual solubility ([2]; 2% ethanol by weight) | visual solubility ([2]; 3% ethanol by weight) | equilibrium saturated solubility in HFA-134a ([3]; 4 days)
CCCCCc1cc(O)c2c(c1)OC(C)(C)[C@@H]1CCC(C)=C[C@@H]21 [Δ-9-THC, (6aR,10aR)-6,6,9-trimethyl-3-pentyl-6a,7,8,10a-tetrahydro-6H-benzo[c]chromen-1-ol] | ≥ 21800 µg/mL | ≥ 24700 µg/mL | ≥ 15900 µg/mL | Soluble | Soluble | Soluble | 2300 µg/mL (≈ 7.31 mM) | 1500 µg/mL (≈ 4.77 mM) | – | – | – | – | –
C=C(C)[C@@H]1CCC(C)=C[C@H]1c1c(O)cc(CCCCC)cc1O [CBD, 2-[(1R,6R)-6-Isopropenyl-3-methylcyclohex-2-en-1-yl]-5-pentylbenzene-1,3-diol] | ≥ 16400 µg/mL | ≥ 15700 µg/mL | – | – | – | – | – | 1800 µg/mL (≈ 5.72 mM) | ≥ 15900 µg/mL | Soluble | soluble | soluble | 2500 µg/mL

From patent US20260241119A1, “METERED DOSE INHALERS AND SOLUTIONS INCLUDING CANNABINOIDS IN HFA-152A” (Kindeva Drug Delivery L.P., priority 2023, published 2026)
